{"source": "patent US4163051A", "about": "“Streptomycetal antibiotic” (Beecham Group Limited, priority 1975, dated 1979)", "key": {"[1]": {"target": "T1, β-lactamase from E. coli JT4 (Escherichia coli, UniProt P62593)", "T1 construct": "β-lactamase from E. coli JT4; endogenous in cells; host or cells: E. coli JT4", "T1 sequence (P62593 24-286 limits assumed)": "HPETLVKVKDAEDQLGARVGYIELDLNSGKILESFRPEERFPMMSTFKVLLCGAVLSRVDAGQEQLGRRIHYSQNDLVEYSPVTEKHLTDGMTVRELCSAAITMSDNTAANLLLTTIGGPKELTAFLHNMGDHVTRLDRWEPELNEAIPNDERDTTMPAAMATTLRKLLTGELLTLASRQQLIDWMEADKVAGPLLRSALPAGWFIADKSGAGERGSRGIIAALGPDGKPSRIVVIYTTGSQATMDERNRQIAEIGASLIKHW", "test": "β-lactamase inhibition by the method of Belgian Pat. No. 827331", "assay_type": "biochemical", "details": "read-out: I50 (converted)"}, "[2]": {"system": "certain gram-positive and gram-negative organisms", "test": "antibacterial activity, microtitre method (general statement)", "assay_type": "cell-based", "details": "substantially pure", "excerpt": "It is likely that MM 17880 has a molecular weight between 300 and 500. […] Thus MM 17880 has the molecular formula C11-14 […]-23 O8-11 N2 S2."}, "[3]": {"system": "certain β-lactamase producing strains of Staphylococcus aureus and Klebsiella aerogenes", "test": "synergy with β-lactam antibiotics (general statement)", "assay_type": "cell-based", "details": "substantially pure; with ampicillin, amoxycillin and the like"}, "[4]": {"system": "Bacillus subtilis", "test": "antibacterial activity (MIC), microtitre method, heavy inoculum", "assay_type": "cell-based", "details": "overnight inoculum at 0.2%", "description": "(§1) The antibacterial activity of the material produced as above was determined by the microtitre method using the overnight inoculum of the test organism at 0.2% concentration. The synergistic activity of the di-sodium salt of MM 17880 in combination with ampicillin and with cephaloridine against Klebsiella aerogenes and Staphylococcus aureus Russell are shown in Table 3.\n(§2) Microtitre - heavy inoculum"}, "[5]": {"system": "Citrobacter freundii Mantio", "test": "antibacterial activity (MIC), microtitre method, heavy inoculum", "assay_type": "cell-based", "details": "overnight inoculum at 0.2%", "description": "as §1, §2"}, "[6]": {"system": "E. coli 10418", "test": "antibacterial activity (MIC), microtitre method, heavy inoculum", "assay_type": "cell-based", "details": "overnight inoculum at 0.2%", "description": "as §1, §2"}, "[7]": {"system": "E. coli JT4", "test": "antibacterial activity (MIC), microtitre method, heavy inoculum", "assay_type": "cell-based", "details": "overnight inoculum at 0.2%", "description": "as §1, §2"}, "[8]": {"system": "Klebsiella aerogenes A", "test": "antibacterial activity (MIC), microtitre method, heavy inoculum", "assay_type": "cell-based", "details": "overnight inoculum at 0.2%", "description": "as §1, §2"}, "[9]": {"system": "Klebsiella aerogenes Ba95", "test": "antibacterial activity (MIC), microtitre method, heavy inoculum", "assay_type": "cell-based", "details": "overnight inoculum at 0.2%", "description": "as §1, §2"}, "[10]": {"system": "Proteus mirabilis 13", "test": "antibacterial activity (MIC), microtitre method, heavy inoculum", "assay_type": "cell-based", "details": "overnight inoculum at 0.2%", "description": "as §1, §2"}, "[11]": {"system": "Proteus morganii 1580", "test": "antibacterial activity (MIC), microtitre method, heavy inoculum", "assay_type": "cell-based", "details": "overnight inoculum at 0.2%", "description": "as §1, §2"}, "[12]": {"system": "Proteus retigeri VM16", "test": "antibacterial activity (MIC), microtitre method, heavy inoculum", "assay_type": "cell-based", "details": "overnight inoculum at 0.2%", "description": "as §1, §2"}, "[13]": {"system": "Proteus vulgaris W090", "test": "antibacterial activity (MIC), microtitre method, heavy inoculum", "assay_type": "cell-based", "details": "overnight inoculum at 0.2%", "description": "as §1, §2"}, "[14]": {"system": "Pseudomonas aeruginosa A", "test": "antibacterial activity (MIC), microtitre method, heavy inoculum", "assay_type": "cell-based", "details": "overnight inoculum at 0.2%", "description": "as §1, §2"}, "[15]": {"system": "Salmonella typhimurium CT10", "test": "antibacterial activity (MIC), microtitre method, heavy inoculum", "assay_type": "cell-based", "details": "overnight inoculum at 0.2%", "description": "as §1, §2"}, "[16]": {"system": "Serratia marcescens US1", "test": "antibacterial activity (MIC), microtitre method, heavy inoculum", "assay_type": "cell-based", "details": "overnight inoculum at 0.2%", "description": "as §1, §2"}, "[17]": {"system": "Staphylococcus aureus Oxford", "test": "antibacterial activity (MIC), microtitre method, heavy inoculum", "assay_type": "cell-based", "details": "overnight inoculum at 0.2%", "description": "as §1, §2"}, "[18]": {"system": "Staphylococcus aureus Russell", "test": "antibacterial activity (MIC), microtitre method, heavy inoculum", "assay_type": "cell-based", "details": "overnight inoculum at 0.2%", "description": "as §1, §2"}, "[19]": {"system": "Streptococcus faccalis I", "test": "antibacterial activity (MIC), microtitre method, heavy inoculum", "assay_type": "cell-based", "details": "overnight inoculum at 0.2%", "description": "as §1, §2"}, "[20]": {"system": "Streptococcus pyrogenes CN10", "test": "antibacterial activity (MIC), microtitre method, heavy inoculum", "assay_type": "cell-based", "details": "overnight inoculum at 0.2%", "description": "as §1, §2"}, "[21]": {"system": "Klebsiella aerogenes A", "test": "activity in combination with ampicillin and cephaloridine (synergy, MIC)", "assay_type": "cell-based", "description": "as §1"}, "[22]": {"system": "Staphylococcus aureus Russell", "test": "activity in combination with ampicillin and cephaloridine (synergy, MIC)", "assay_type": "cell-based", "description": "as §1"}, "[23]": {"test": "stability of salts and unsalted acid", "assay_type": "physicochemical", "details": "salts vs unsalted acid; in solution"}, "[24]": {"system": "Klebsiella aerogenes", "test": "hole in plate method on agar seeded with Klebsiella aerogenes (arbitrary units)", "assay_type": "cell-based", "details": "final solid of Example 1, sodium salt", "description": "300 ml. of 10% Pluronic L81 in soya-bean oil was added to prevent foaming. The fermentation was harvested after 48 hours and clarified by centrifugation. The clarified brew was arbitarily assigned an activity of 340 units/ml when assayed by the conventional hole in plate method on agar seeded with Klebsiella aerogenes."}}, "note": "Where a name gives a salt, the structure may show the parent alone.", "data": [{"smiles": "CC(=O)NCCSC1=C(C(=O)O)N2C(=O)C(C(C)OS(=O)(=O)O)C2C1", "note": "(stereo not shown) [di-sodium salt of MM 17880]", "values": [{"measurement": "IC50", "setting": "[1]", "result": 0.634, "unit": "nM"}, {"measurement": "level of antibacterial activity", "setting": "[2]", "result": "good level of antibacterial activity"}, {"measurement": "synergy with β-lactam antibiotics", "setting": "[3]", "result": "able to synergyse the anti-bacterial activity of β-lactam antibiotics"}]}, {"smiles": "CC(=O)NCCSC1=C(C(=O)O)N2C(=O)C(C(C)OS(=O)(=O)O)C2C1", "note": "(stereo not shown) [MM 17880]", "values": [{"measurement": "MIC", "setting": "[4]", "result": 0.2, "unit": "µg/mL"}, {"measurement": "MIC", "setting": "[5]", "result": 3.1, "unit": "µg/mL"}, {"measurement": "MIC", "setting": "[6]", "result": 0.1, "unit": "µg/mL"}, {"measurement": "MIC", "setting": "[7]", "result": 3.1, "unit": "µg/mL"}, {"measurement": "MIC", "setting": "[8]", "result": 0.8, "unit": "µg/mL"}, {"measurement": "MIC", "setting": "[9]", "result": 12.5, "unit": "µg/mL"}, {"measurement": "MIC", "setting": "[10]", "result": 1.6, "unit": "µg/mL"}, {"measurement": "MIC", "setting": "[11]", "result": 1.6, "unit": "µg/mL"}, {"measurement": "MIC", "setting": "[12]", "result": 0.2, "unit": "µg/mL"}, {"measurement": "MIC", "setting": "[13]", "result": 0.2, "unit": "µg/mL"}, {"measurement": "MIC", "setting": "[14]", "result": "> 50", "unit": "µg/mL"}, {"measurement": "MIC", "setting": "[15]", "result": 0.2, "unit": "µg/mL"}, {"measurement": "MIC", "setting": "[16]", "result": 0.4, "unit": "µg/mL"}, {"measurement": "MIC", "setting": "[17]", "result": 0.4, "unit": "µg/mL"}, {"measurement": "MIC", "setting": "[18]", "result": 0.4, "unit": "µg/mL"}, {"measurement": "MIC", "setting": "[19]", "result": 6.2, "unit": "µg/mL"}, {"measurement": "MIC", "setting": "[20]", "result": "< 0.01", "unit": "µg/mL"}, {"measurement": "MIC", "setting": "[21]", "result": 0.2, "unit": "µg/mL"}, {"measurement": "MIC", "setting": "[22]", "result": 3.1, "unit": "µg/mL"}, {"measurement": "stability", "setting": "[23]", "result": "tends to decompose in solution"}, {"measurement": "activity (assayed, arbitrary units)", "setting": "[24]", "result": "16,000 units/mg"}]}, {"smiles": "O=C(Cc1cccs1)N[C@@H]1C(=O)N2C(C(=O)[O-])=C(C[n+]3ccccc3)CS[C@H]12", "note": "[Cephaloridine, cephaloridine]", "values": [{"measurement": "MIC", "setting": "[21]; compound alone", "result": 5.0, "unit": "µg/mL"}, {"measurement": "MIC", "setting": "[22]; compound alone", "result": 1.25, "unit": "µg/mL"}]}, {"smiles": "CC1(C)S[C@@H]2[C@H](NC(=O)[C@H](N)c3ccccc3)C(=O)N2[C@H]1C(=O)O", "note": "[Ampicillin, ampicillin]", "values": [{"measurement": "MIC", "setting": "[21]", "result": 250, "unit": "µg/mL"}, {"measurement": "MIC", "setting": "[22]", "result": 500, "unit": "µg/mL"}]}]}
